Reference: patent US8927571B2, “Pyrido[4,3-B]indoles and methods of use” (Medivation Technologies, Inc., priority 2009, dated 2015)

Experiments:
[1] = target: T1, human recombinant histamine H2 receptor (Homo sapiens, UniProt P25021); experiment: Histamine H2 radioligand binding assay ([125I]Aminopotentidine); conditions: percent inhibition of specific binding of 0.1 nM [125I]Aminopotentidine; compounds screened at 1 μM or lower
T1 construct: expressed in transfected cells; host or cells: Chinese hamster ovary (CHO) K1 cells
Description: To evaluate in radioligand binding assays the activity of compounds of the invention, human recombinant histamine H2 receptor expressed in Chinese hamster ovary (CHO) K1 cells (Ruat, M., Proc. Natl. Acad. Sci. USA. 87(5):1658, 1990) in a 50 mM Phosphate buffer, pH 7.4 was used. Compounds of the invention were incubated with 0.1 nM [^125I]Aminopotentidine for 120 min at 25° C. Non-specific binding was estimated in the presence of 3 μM Tiotidine. Receptor proteins were filtered and washed, the filters were then counted to determine [^125I]Aminopotentidine specifically bound. Compounds were screened at 1 μM or lower, using 1% DMSO as vehicle. Biochemical assay results are presented as the percent inhibition of specific binding in Table 2.

[2] = target: T2, human recombinant adrenergic α1D receptor (Homo sapiens, UniProt P25100); experiment: Adrenergic α1D radioligand binding assay ([3H]Prozosin); conditions: 0.6 nM [3H]Prozosin, read-out: Percent Inhibition of ligand binding, Adrenergic (1 μM) α1D
T2 construct: expressed in transfected cells; host or cells: human embryonic kidney (HEK-293) cells
T2 sequence (P25100 1-572): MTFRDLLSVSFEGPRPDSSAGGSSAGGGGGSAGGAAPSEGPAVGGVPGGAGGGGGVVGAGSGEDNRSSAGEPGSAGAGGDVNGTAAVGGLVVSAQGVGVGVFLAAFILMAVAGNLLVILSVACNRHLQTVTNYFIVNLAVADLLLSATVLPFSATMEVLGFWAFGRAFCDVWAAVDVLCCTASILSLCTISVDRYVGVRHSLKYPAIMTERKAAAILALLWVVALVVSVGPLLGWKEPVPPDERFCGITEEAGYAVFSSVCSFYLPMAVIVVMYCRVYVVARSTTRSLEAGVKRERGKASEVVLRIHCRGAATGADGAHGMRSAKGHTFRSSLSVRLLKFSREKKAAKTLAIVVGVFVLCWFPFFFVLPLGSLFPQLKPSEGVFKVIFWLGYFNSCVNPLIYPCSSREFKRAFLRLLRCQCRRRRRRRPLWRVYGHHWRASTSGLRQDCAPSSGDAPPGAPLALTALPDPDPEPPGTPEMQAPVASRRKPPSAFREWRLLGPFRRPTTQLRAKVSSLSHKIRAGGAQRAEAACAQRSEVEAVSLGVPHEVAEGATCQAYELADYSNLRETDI
Description: Compounds of invention were incubated with 0.6 nM [^3H]Prozosin for 60 min at 25° C. Non-specific binding was estimated in the presence of 10 μM phentolamine. Receptor proteins were filtered and washed, the filters were then counted to determine [^3H]Prozosin specifically bound. Compounds were screened at 1 μM or lower, using 1% DMSO as vehicle. Biochemical assay results are presented as the percent inhibition of specific binding in Table 3.

[3] = target: T3, human recombinant serotonin (5-Hydroxytryptamine) 5-HT2A receptor (Homo sapiens, UniProt P28223); experiment: Serotonin 5-HT2A radioligand binding assay ([3H]Ketanserin); conditions: 0.5 nM [3H]Ketanserin, read-out: Percent Inhibition of ligand binding, Serotonin (1 μM) 5-HT2A
T3 construct: expressed in transfected cells; host or cells: Chinese hamster ovary (CHO-K1) cells
Description: (§1) Compounds of the invention were incubated with 0.5 nM [^3H]Ketanserin for 60 min at 25° C. Non-specific binding was estimated in the presence of 1 μM Mianserin. Receptor proteins were filtered and washed, the filters were then counted to determine [^3H]Ketanserin specifically bound. Compounds were screened at 1 μM or lower, using 1% DMSO as vehicle. Biochemical assay results are presented as the percent inhibition of specific binding in Table 4.

[4] = target: T4, human recombinant serotonin (5-Hydroxytryptamine) 5-HT2C receptor (Homo sapiens, UniProt P28335); experiment: Serotonin 5-HT2C radioligand binding assay ([3H]Mesulergine); conditions: 1 nM [3H]Mesulergine, read-out: Percent Inhibition of ligand binding, Serotonin (1 μM) 5-HT2C
T4 construct: expressed in transfected cells; host or cells: Chinese hamster ovary (CHO-K1) cells
T4 sequence (P28335 33-458): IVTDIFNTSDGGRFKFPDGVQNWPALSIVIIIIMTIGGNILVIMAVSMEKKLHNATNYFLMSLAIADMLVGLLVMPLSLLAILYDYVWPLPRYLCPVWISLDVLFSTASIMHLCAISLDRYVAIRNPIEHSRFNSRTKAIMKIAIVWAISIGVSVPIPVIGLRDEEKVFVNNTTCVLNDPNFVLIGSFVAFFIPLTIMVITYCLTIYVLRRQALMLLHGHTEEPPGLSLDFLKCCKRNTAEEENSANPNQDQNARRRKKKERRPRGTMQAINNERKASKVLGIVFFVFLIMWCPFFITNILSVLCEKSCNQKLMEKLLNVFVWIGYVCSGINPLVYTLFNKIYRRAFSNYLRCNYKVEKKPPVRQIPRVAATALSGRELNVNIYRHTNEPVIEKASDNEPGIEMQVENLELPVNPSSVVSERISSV
Description: as §1, with “1” for “0.5”, “[^3H]Mesulergine” for “[^3H]Ketanserin”

[5] = target: T5, human recombinant serotonin (5-Hydroxytryptamine) 5-HT6 receptor (Homo sapiens, UniProt P50406); experiment: Serotonin 5-HT6 radioligand binding assay ([3H]LSD); conditions: 1.5 nM [3H]LSD, read-out: Percent Inhibition of ligand binding, Serotonin (1 μM) 5-HT6
T5 construct: expressed in transfected cells; host or cells: human HeLa cells
Description: Compounds of the invention were incubated with 1.5 nM [3H]Lysergic acid diethylamide (LSD) for 120 min at 37° C. […] Receptor proteins were filtered and washed, the filters were then counted to determine [3H]LSD specifically bound. Compounds were screened at 1 μM or lower, using 1% DMSO as vehicle. Biochemical assay results are presented as the percent inhibition of specific binding in Table 4.

T3 sequence (P28223 whole entry): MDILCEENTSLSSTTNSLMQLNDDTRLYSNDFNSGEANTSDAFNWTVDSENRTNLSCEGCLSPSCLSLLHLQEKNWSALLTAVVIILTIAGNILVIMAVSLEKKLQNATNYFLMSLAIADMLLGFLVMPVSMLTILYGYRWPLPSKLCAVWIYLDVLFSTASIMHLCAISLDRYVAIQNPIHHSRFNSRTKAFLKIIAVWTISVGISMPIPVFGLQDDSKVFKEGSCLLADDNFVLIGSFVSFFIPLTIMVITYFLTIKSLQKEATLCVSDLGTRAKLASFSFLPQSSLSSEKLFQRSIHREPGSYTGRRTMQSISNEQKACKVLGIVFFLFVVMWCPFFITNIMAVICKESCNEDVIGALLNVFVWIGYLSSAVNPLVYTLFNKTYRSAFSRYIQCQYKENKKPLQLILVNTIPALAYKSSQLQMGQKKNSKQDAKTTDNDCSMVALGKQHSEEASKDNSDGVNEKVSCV
T5 sequence (P50406 whole entry): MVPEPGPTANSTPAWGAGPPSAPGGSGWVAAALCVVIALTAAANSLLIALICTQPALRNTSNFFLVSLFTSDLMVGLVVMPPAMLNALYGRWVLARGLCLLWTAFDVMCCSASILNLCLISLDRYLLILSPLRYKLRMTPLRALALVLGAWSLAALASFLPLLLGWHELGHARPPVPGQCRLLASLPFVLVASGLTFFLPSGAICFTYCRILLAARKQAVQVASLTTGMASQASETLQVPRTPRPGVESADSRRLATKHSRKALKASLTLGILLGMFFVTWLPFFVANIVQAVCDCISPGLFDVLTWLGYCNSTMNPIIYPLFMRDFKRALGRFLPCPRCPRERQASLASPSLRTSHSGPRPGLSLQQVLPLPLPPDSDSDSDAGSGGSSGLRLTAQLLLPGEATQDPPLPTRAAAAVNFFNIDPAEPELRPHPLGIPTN
T1 sequence (P25021 whole entry): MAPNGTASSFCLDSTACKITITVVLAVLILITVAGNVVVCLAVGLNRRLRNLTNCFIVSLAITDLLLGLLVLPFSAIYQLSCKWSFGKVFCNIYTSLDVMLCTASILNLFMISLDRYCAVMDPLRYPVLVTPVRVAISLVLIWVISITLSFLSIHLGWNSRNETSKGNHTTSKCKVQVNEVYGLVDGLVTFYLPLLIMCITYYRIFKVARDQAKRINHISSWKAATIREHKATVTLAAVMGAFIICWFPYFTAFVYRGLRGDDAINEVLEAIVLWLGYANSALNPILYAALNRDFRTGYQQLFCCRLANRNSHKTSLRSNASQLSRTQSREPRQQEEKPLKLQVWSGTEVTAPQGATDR

| SMILES | Binding Data (% Inhibition) Histamine Binding H2 [1] [%] | inhibition at 1 µM [2] [%] | inhibition at 1 µM [3] [%] | inhibition at 1 µM [4] [%] | inhibition at 1 µM [5] [%] |
| --- | --- | --- | --- | --- | --- |
| CN1CCc2c(c3cc(Cl)ccc3n2CC2(c3ccc(Cl)cc3)OCCO2)C1 [Compound 5, 8-chloro-5-((2-(4-chlorophenyl)-1,3-dioxolan-2-yl)methyl)-2-methyl-2,3,4,5-tetrahydro-1H-pyrido[4,3-b]indole] | 98 | 16 | 99 | 100 | 85 |
| CN1CCc2c(c3cc(Cl)ccc3n2CC2(c3ccc(F)cc3)OCCO2)C1 [Compound 4, 8-chloro-5-((2-(4-fluorophenyl)-1,3-dioxolan-2-yl)methyl)-2-methyl-2,3,4,5-tetrahydro-1H-pyrido[4,3-b]indole] | 96 | 35 | 99 | 101 | 104 |
| Cc1ccc2c(c1)c1c(n2CC2(c3ccccc3)OCCO2)CCN(C)C1 [Compound 2, 2,8-dimethyl-5-((2-phenyl-1,3-dioxolan-2-yl)methyl)-2,3,4,5-tetrahydro-1H-pyrido[4,3-b]indole] | 89 | 56 | 93 | 96 | 102 |
| CCOC(=O)CC(Cn1c2c(c3cc(C)ccc31)CN(C)CC2)c1ccc(F)cc1 (centres unmarked) [Compound 6, ethyl 4-(2,8-dimethyl-3,4-dihydro-1H-pyrido[4,3-b]indol-5(2H)-yl)-3-(4-fluorophenyl)butanoate] | 86 | 106 | 95 | 93 | 102 |
| CNC(=O)CC(Cn1c2c(c3cc(C)ccc31)CN(C)CC2)c1ccc(F)cc1 (centres unmarked) [Compound 8, 4-(2,8-dimethyl-3,4-dihydro-1H-pyrido[4,3-b]indol-5(2H)-yl)-3-(4-fluorophenyl)-N-methylbutanamide] | 22 | 87 | 85 | 95 | 63 |
| Cc1ccc2c(c1)c1c(n2CC2(c3ccc(F)cc3)OCCO2)CCN(C)C1 [Compound 3, 5-((2-(4-fluorophenyl)-1,3-dioxolan-2-yl)methyl)-2,8-dimethyl-2,3,4,5-tetrahydro-1H-pyrido[4,3-b]indole] | 96 | 60 | 99 | 93 | 103 |
| Cc1ccc2c(c1)c1c(n2CC(CC(=O)O)c2ccc(F)cc2)CCN(C)C1 (centres unmarked) [Compound 7, 4-(2,8-dimethyl-3,4-dihydro-1H-pyrido[4,3-b]indol-5(2H)-yl)-3-(4-fluorophenyl)butanoic acid] | 5 | 21 | 9 | 14 | -3 |
